From article PMC4254627 (Bioorganic & medicinal chemistry letters, 2014) come the findings set out here.

Data set [1] can be described thus: Solubility / precipitation behaviour in pH 7.4 buffer. The class given is physicochemical.
Another data set in a line: Stability. The class given is in vitro ADME, human. The following applies: 50% HP vs pH 7.4 buffer.

Entries after “also recorded” stand apart in the source; their conditions may differ.

On to `CC(C)[C@H](N)C(=O)O[C@@H]1CC[C@@]2(O)[C@H]3Cc4ccc(O)c5c4[C@@]2(CCN3CC2CC2)[C@H]1O5` [Prodrug 6b], for which the “solubility in pH 7.4 buffer” value in data set [1] is given as “precipitate”. Still for that read-out and setting: to `CCC(C)[C@H](N)C(=O)O[C@@H]1CC[C@@]2(O)[C@H]3Cc4ccc(O)c5c4[C@@]2(CCN3CC2CC2)[C@H]1O5` (stereo partly drawn) [Prodrug 6d] belongs “highly insoluble; also recorded: precipitate”. Turning to `NCCC(=O)O[C@@H]1CC[C@@]2(O)[C@H]3Cc4ccc(O)c5c4[C@@]2(CCN3CC2CC2)[C@H]1O5` [Prodrug 6e], in “Stability”, the “reduction of half-life in HP compared to pH 7.4 PBS buffer” value was “approximately 5.4 fold”.
